From ChEMBL document CHEMBL4622949, “A chalcone derivative binds a putative allosteric site of YopH: Inhibition of a virulence factor of Yersinia” (Bioorg Med Chem Lett, 2020)

Target: T1, Tyrosine-protein phosphatase non-receptor type 22 (Homo sapiens, UniProt Q9Y2R2)
T1 sequence (Q9Y2R2 whole entry): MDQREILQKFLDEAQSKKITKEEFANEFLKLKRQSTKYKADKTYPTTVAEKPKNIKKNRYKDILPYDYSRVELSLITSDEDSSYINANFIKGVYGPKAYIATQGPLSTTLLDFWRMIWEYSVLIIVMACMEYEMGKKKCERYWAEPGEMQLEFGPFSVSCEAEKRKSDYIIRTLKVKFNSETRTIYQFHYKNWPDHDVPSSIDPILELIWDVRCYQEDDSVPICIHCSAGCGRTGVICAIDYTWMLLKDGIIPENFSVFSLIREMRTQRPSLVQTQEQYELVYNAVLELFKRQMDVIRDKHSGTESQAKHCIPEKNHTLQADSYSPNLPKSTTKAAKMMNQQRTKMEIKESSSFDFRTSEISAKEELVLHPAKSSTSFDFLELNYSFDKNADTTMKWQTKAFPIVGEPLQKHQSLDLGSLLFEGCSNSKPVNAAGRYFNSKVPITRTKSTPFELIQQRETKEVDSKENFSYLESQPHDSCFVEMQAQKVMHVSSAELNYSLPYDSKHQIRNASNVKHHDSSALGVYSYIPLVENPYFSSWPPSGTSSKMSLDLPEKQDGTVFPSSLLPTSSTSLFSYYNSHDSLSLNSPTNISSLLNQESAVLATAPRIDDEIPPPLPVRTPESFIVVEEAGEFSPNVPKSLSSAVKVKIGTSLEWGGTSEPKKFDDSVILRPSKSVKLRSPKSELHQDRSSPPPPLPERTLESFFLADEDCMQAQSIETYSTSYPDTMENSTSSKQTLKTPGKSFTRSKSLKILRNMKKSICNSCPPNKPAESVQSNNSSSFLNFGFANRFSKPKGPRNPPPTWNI
Assay: Inhibition of LYP (unknown origin) at 25 uM using pNPP as substrate relative to control

SMILES | inhibition at 25 µM
O=C(O)c1ccc(/C=C/C(=O)c2ccccc2O)cc1 | 11.7%
Cc1ccc(C(=O)/C=C/c2ccc(C(=O)O)cc2)cc1 | 9.5%
COc1ccc(OC)c(C(=O)/C=C/c2ccc(C(=O)O)cc2)c1 | 15.8%
O=C(O)c1ccc(/C=C/C(=O)c2cccc3ccccc23)cc1 | 10.3%
O=C(O)c1ccc(/C=C/C(=O)c2ccc(F)cc2)cc1 | 11.4%
COc1ccc(C(=O)/C=C/c2ccc(C(=O)O)cc2)c(OC)c1 | 3.9%
COc1cc(C(=O)/C=C/c2ccc(C(=O)O)cc2)ccc1O | 9.1%
O=C(O)c1ccc(/C=C/C(=O)c2ccccc2)cc1 | 4.2%
O=C(O)c1ccc(/C=C/C(=O)c2cccc(O)c2)cc1 | 7.9%
